Source: ChEMBL document CHEMBL5230088 (Eur J Med Chem, 2020)

Assays:
Ebolavirus [1] = test: Antiviral activity against EBOV infected in rhesus monkey model assessed as protection against viral infection at 10 mg/kg, iv administered once daily fir 12 days relative to control; type: functional; settings: time 12 day
Nipah virus [2] = test: Antiviral activity against NiV by reporter assay; type: functional, organism-based; settings: Henipavirus nipahense
Ebolavirus [3] = test: Antiviral activity against EBOV infected in human HeLa cells assessed as reduction in viral replication; type: functional, organism-based; settings: Orthoebolavirus
Junin virus = test: Antiviral activity against Argentinian mammarenavirus assessed as inhibition of viral replication; type: functional, organism-based; settings: Mammarenavirus juninense
Nipah virus [4] = test: Antiviral activity against NiV by cytopathic effect assay; type: functional, organism-based; settings: Henipavirus nipahense
[5] = Cytotoxicity against human Huh-7 cells by celltiter-glo Assay; type: toxicity, cell-based
Ebolavirus [6] = test: Antiviral activity against EBOV infected in human Huh-7 cells assessed as reduction in viral replication; type: functional, organism-based; settings: Orthoebolavirus
[7] = system: Respiratory syncytial virus; test: Antiviral activity against RSV; type: functional, organism-based; settings: human respiratory syncytial virus
Murine hepatitis virus = test: Antiviral activity against MHV infected in mouse Astrocytoma delayed brain tumor (DBT) cells; type: functional, organism-based; settings: Murine coronavirus, Astrocytoma delayed brain tumor (DBT) cell
[8] = Prodrug conversion in rhesus monkey plasma assessed as NTP formation at 10 mg/kg; type: ADME, organism-based, Macaca mulatta; settings: in vivo
Human coronavirus OC43 = test: Antiviral activity against HCoV-OC43; type: functional, organism-based; settings: Betacoronavirus 1
Nipah virus [9] = test: Antiviral activity against NiV by antigen reduction assay; type: functional, organism-based; settings: Henipavirus nipahense
[10] = system: Middle East respiratory syndrome-related coronavirus; test: Antiviral activity against MERS-CoV infected in HAE cells; type: functional, organism-based
Ebolavirus [11] = test: Antiviral activity against EBOV infected in human primary macrophage cells assessed as reduction in viral replication; type: functional, organism-based; settings: Orthoebolavirus
Ebolavirus [12] = test: Antiviral activity against EBOV infected in human endothelial cells assessed as reduction in viral replication; type: functional, organism-based; settings: Orthoebolavirus
Nipah virus [13] = test: Antiviral activity against NiV by virus titre reduction assay; type: functional, organism-based; settings: Henipavirus nipahense
[14] = Cytotoxicity against mouse Astrocytoma delayed brain tumor (DBT) cells; type: toxicity, cell-based, Astrocytoma delayed brain tumor (DBT) cell
SARS-CoV-2 = test: Antiviral activity against SARS-CoV-2 infected in HAE cells assessed as reduction in viral infection; type: functional, organism-based; settings: Severe acute respiratory syndrome coronavirus 2, HAE
Ebolavirus [15] = test: Antiviral activity against EBOV infected in HFF assessed as reduction in viral replication; type: functional, organism-based; settings: Orthoebolavirus
Lassa virus = test: Antiviral activity against Lassa virus assessed as inhibition of viral replication; type: functional, organism-based; settings: Mammarenavirus lassaense
[16] = Cytotoxicity against African green monkey Vero E6 cells; type: toxicity, cell-based, Vero C1008; settings: chlorocebus sabaeus
[17] = Prodrug conversion in mouse lungs assessed as NTP formation at 10 mg/kg; type: ADME, organism-based, Lung; settings: in vivo
[18] = Antiviral activity against Porcine delta coronavirus assessed as reduction in viral replication; type: functional, Porcine deltacoronavirus
[19] = system: Middle East respiratory syndrome-related coronavirus; test: Antiviral activity against MERS-CoV infected in HLE cells assessed as inhibition of viral replication; type: functional, organism-based

Which Activity (Ebolavirus [1]) does the source give for `CCC(CC)COC(=O)[C@H](C)N[P@](=O)(OC[C@H]1O[C@@](C#N)(c2ccc3c(N)ncnn23)[C@H](O)[C@@H]1O)Oc1ccccc1` here?
The Activity was 100%.

What about the EC50 (Nipah virus [2]) of the same compound?
Its EC50 is 29 nM.

What about the EC50 (Ebolavirus [3]) of the same compound?
The EC50 was 60 nM.

What about the EC50 (Junin virus) of the same compound?
The EC50 was 470 nM.

And the EC90 (Junin virus)?
The EC90 was 1330 nM.

And the EC50 (Nipah virus [4])?
Its EC50 is 29 nM.

What about the CC50 [5] of the same compound?
The CC50 was over 10000 nM.

What about the EC50 (Ebolavirus [6]) of the same compound?
Its EC50 is 60 nM.

And the EC50 [7]?
The EC50 was 19 nM.

What about the EC90 [7] of the same compound?
Its EC90 is 51 nM.

What about the EC50 (Murine hepatitis virus) of the same compound?
Its EC50 is 30 nM.

What about the Drug metabolism [8] of the same compound?
The Drug metabolism was 30 µmol/L.

What about the EC50 (Human coronavirus OC43) of the same compound?
The EC50 was 150 nM.

What about the EC50 (Nipah virus [9]) of the same compound?
Its EC50 is 29 nM.

What about the EC50 [10] of the same compound?
The EC50 was 74 nM.

What about the EC50 (Ebolavirus [11]) of the same compound?
The EC50 was 60 nM.

And the EC50 (Ebolavirus [12])?
The EC50 was 60 nM.

And the EC50 (Nipah virus [13])?
Its EC50 is 29 nM.

And the CC50 [14]?
Its CC50 is 39000 nM.

What about the EC50 (SARS-CoV-2) of the same compound?
The EC50 was 69 nM.

And the EC50 (Ebolavirus [15])?
Its EC50 is 60 nM.

What about the EC50 (Lassa virus) of the same compound?
The EC50 was 1480 nM.

And the EC90 (Lassa virus)?
Its EC90 is 2800 nM.

And the CC50 [16]?
Its CC50 is over 100000 nM.

What about the Drug metabolism [17] of the same compound?
The Drug metabolism was 2 µmol/L.

And the EC50 [18]?
The EC50 was 20 nM.

And the IC50 [19]?
Its IC50 is 25 nM.
